Assay results taken from patent publication US7183383B2, “Uses of collagen IV” (The University of Arkansas for Medical Sciences, priority 2002, dated 2007).

What was measured:
Assay type in all cases: cell-based, rabbit
[1] = test system: Na^+/K^+-ATPase activity in renal proximal tubular cells; experiment: Na^+/K^+-ATPase activity (ouabain-sensitive ATPase); settings: day 6 after DCVC injury; 50 μg/ml
Protocol: (§1) Confluent monolayers of renal proximal tubular cells (day 6 after seeding) were exposed to 200 μM S-(1,2-dichlorovinyl)-L-cysteine (dissolved in water) for 1.75 hours followed by toxicant removal and addition of fresh culture media. This method produces approximately 50% cell death and loss 24 hours after the exposure. On days 1, 4, and 6 following S-(1,2-dichlorovinyl)-L-cysteine exposure, the ability of the remaining renal proximal tubular cells to regenerate and repair physiological function was monitored as described below. In some experiments, immediately after S-(1,2-dichlorovinyl)-L-cysteine exposure and after daily media change through day 6 after injury, collagen I (0, 5, 15, or 50 μg/ml), collagen IV (0, 5, 15, or 50 μg/ml), laminin (50 μg/ml), or cellular fibronectin (50 μg/ml) was added to the culture media of uninjured and S-(1,2-dichlorovinyl)-L-cysteine-injured renal proximal tubular cells grown in physiological concentrations of AscP. Exogenous collagens I and IV used in this study were triple helical and contained only α1 and α2 chains in conformations similar to those found in the renal basement membrane (3, 25). Laminin was a mixture of biologically active laminin chains found in most epithelial tissues (8, 50) and cellular fibronectin was composed of functional dimers (51).
On days 1 and 6 after sublethal S-(1,2-dichlorovinyl)-L-cysteine injury, total ATPase activity was measured using a modification of a previously described procedure (44). Briefly, renal proximal tubular cells cultured in 48-well cell culture clusters were scraped and incubated in dissociation buffer (5 mM HEPES (pH 7.4), 25 mM imidazole, 1% BSA, 0.065% sodium dodecyl sulfate (SDS)) for 10 min. at room temperature and placed on ice. The dissociated renal proximal tubular cells were then diluted 5-fold with additional dissociation buffer minus SDS. Aliquots of dissociated renal proximal tubular cells were combined with fresh ATPase assay buffer (2.54 mM MgCl2, 100 mM NaCl, 10 mM KCl, 5 mM HEPES, 10 U/ml lactate dehydrogenase, 7 U/ml pyruvate kinase, 2.54 mM Na2ATP, 2.54 mM phospho(enol)pyruvate, and 0.5 mM β-NADH). ATPase activity was measured under linear conditions spectrophotometrically as the oxidation of β-NADH to NAD^+ at 37° C. in the absence or presence of ouabain (0.1 mM) at a wavelength of 340 nm. Na^+/K^+-ATPase activity was calculated as total ATPase activity minus ouabain-insensitive ATPase activity.
Confluent monolayers of renal proximal tubular cells (day 6 after seeding) were exposed to 200 μM S-(1,2-dichlorovinyl)-L-cysteine (dissolved in water) for 1.75 hours followed by toxicant removal and addition of fresh culture media. This method produces approximately 50% cell death and loss 24 hours after the exposure. In some experiments, exogenous collagen IV (50 μg/ml), collagen I (50 μg/ml), or function-stimulating antibodies to collagen-binding integrin subunits α2 or β1 (5 μg/ml) was added daily to the culture media of S-(1,2-dichlorovinyl)-L-cysteine-injured renal proximal tubular cells cultured in the absence of pharmacological concentrations of L-ascorbic acid-2-phosphate. Function-stimulating antibodies to collagen-binding integrin α1 are not commercially available at this time. On days 1 and 6 following S-(1,2-dichlorovinyl)-L-cysteine exposure, active Na^+ transport or Na^+/K^+-ATPase activity, and collagen-binding integrin expression and/or localization in the remaining sublethally injured renal proximal tubular cells was determined as described below.
Total ATPase activity was measured as described above. […]

[2] = test system: renal proximal tubular cells; experiment: Cell density (monolayer protein content) in DCVC-injured RPTC; settings: for monolayer protein content in injured RPTC: day 1 or day 6 after DCVC, 50 μg/ml
Protocol: Rabbit renal proximal tubules were isolated using the iron oxide perfusion method and grown in 35-mm tissue culture dishes or 48-well cell culture clusters under improved conditions as previously described (35, 36). The cell culture medium was a 1:1 mixture of DMEM/Ham's F-12 (without D-glucose, phenol red, or sodium pyruvate) supplemented with 15 mM HEPES buffer, 2.5 mM L-glutamine, 1 μM pyridoxine HCl, 15 mM sodium bicarbonate, and 6 mM lactate. Hydrocortisone (50 nM), selenium (5 ng/ml), human transferrin (5 μg/ml), bovine insulin (10 nM), and L-ascorbic acid-2-phosphate (50 μM or 500 μM) were added to fresh culture medium immediately prior to daily media change. L-Ascorbic acid-2-phosphate (AscP) was used due to the fact that L-ascorbic acid is unstable in culture media. AscP is stable in culture media for ≧7 days at 37° C. and, after intracellular dephosphorylation, has the same effect on cultured cells as L-ascorbic acid (13).
as §1
Measurement of monolayer protein content over time was used to estimate cell density. On days 1, 4, and 6 after sublethal S-(1,2-dichlorovinyl)-L-cysteine injury, renal proximal tubular cell monolayers were washed with PBS and solubilized in Triton buffer (0.05% Triton X-100, 100 mM Tris-Base, 150 mM NaCl, pH 7.5). Samples were sonicated and protein concentrations determined using the method of Lowry (26) or the bicinchoninic acid microassay according to the manufacturer's instructions (Pierce, Rockford, Ill.).

[3] = test system: renal proximal tubular cells; experiment: Basal oxygen consumption (QO2), a measure of mitochondrial function
Protocol: as §1
On days 1, 4, and 6 after sublethal S-(1,2-dichlorovinyl)L-cysteine injury, renal proximal tubular cells bathed in 37° C. culture medium were gently detached from culture dishes with a rubber policeman and transferred to a 37° C. oxygen consumption (QO2) chamber. Basal renal proximal tubular cells QO2 was measured polarographically using a Clark-type electrode as described previously (36).

[4] = day 1 after DCVC injury, in presence of exogenous protein
[5] = day 6 after DCVC injury, 5, 15, 50 μg/ml
[6] = uninjured RPTC, days 1 or 6, exogenous protein

Row | Substance | Na^+/K^+-ATPase activity in injured RPTC [1] | monolayer protein content in injured RPTC [2] | decrease in basal QO2 [3, 4] | repair of basal QO2 [3, 5] | basal QO2 in untreated RPTC [3, 6] | decrease in monolayer cell density [2, 4] | cell density [2, 5] | monolayer cell density in untreated RPTC [2, 6]
1 | fibronectin | remained inhibited | no change |  |  |  |  |  | 
2 | collagen I: Rat tail collagen I; triple helical, containing only α1 and α2 chains | remained inhibited | no change | approximately 50% | neither increased cell density nor repair of basal QO2 | no effect | approximately 50% | neither increased cell density nor repair of basal QO2 | no effect
3 | laminin | remained inhibited | no change |  |  |  |  |  | 
